Like-named read-outs stand apart in the source and are kept apart here.
How the values were obtained:
Format in all cases: cell-based
CCRF-CEM = assay: NCI 60 five-dose screen CCRF-CEM; details: Homo sapiens; for CC50: read-out: LC50 (the source's name)
HCT-15 = assay: NCI 60 five-dose screen HCT-15; details: Homo sapiens; for CC50: read-out: LC50 (the source's name) (converted)
HL-60(TB) = assay: NCI 60 five-dose screen HL-60(TB); details: Homo sapiens; for CC50: read-out: LC50 (the source's name) (converted)
MCF7 = assay: NCI 60 five-dose screen MCF7; details: Homo sapiens; for CC50: read-out: LC50 (the source's name) (converted)
OVCAR-8 = assay: NCI 60 five-dose screen OVCAR-8; details: Homo sapiens; for CC50: read-out: LC50 (the source's name) (converted)
SF-268 = assay: NCI 60 five-dose screen SF-268; details: Homo sapiens; for CC50: read-out: LC50 (the source's name) (converted)
SK-MEL-5 = assay: NCI 60 five-dose screen SK-MEL-5; details: Homo sapiens; for CC50: read-out: LC50 (the source's name) (converted)
A498 = assay: NCI 60 five-dose screen A498; details: Homo sapiens; for CC50: read-out: LC50 (the source's name) (converted)
RPMI-8226 = assay: NCI 60 five-dose screen RPMI-8226; details: Homo sapiens; for CC50: read-out: LC50 (the source's name)
OVCAR-4 = assay: NCI 60 five-dose screen OVCAR-4; details: Homo sapiens; for CC50: read-out: LC50 (the source's name) (converted)
OVCAR-3 = assay: NCI 60 five-dose screen OVCAR-3; details: Homo sapiens; for CC50: read-out: LC50 (the source's name) (converted)
HT29 = assay: NCI 60 five-dose screen HT29; details: Homo sapiens
NCI-H226 = assay: NCI 60 five-dose screen NCI-H226; details: Homo sapiens; for CC50: read-out: LC50 (the source's name) (converted)
SK-OV-3 = assay: NCI 60 five-dose screen SK-OV-3; details: Homo sapiens; for CC50: read-out: LC50 (the source's name) (converted)

Work on `OC1CCC(Cn2c(C(F)(F)F)cc3c(Cl)ncnc32)CC1` (stereo not shown) [NUCC-0226689] yielded a GI50 (CCRF-CEM; five-dose) of 5.62 µM, an IC50 (CCRF-CEM; five-dose) of 9.33 µM and an IC (TGI) (CCRF-CEM; five-dose) of 100 µM. It also gave a CC50 (CCRF-CEM; five-dose) of at least 100 µM, a GI50 (HCT-15; five-dose) of 3.72 µM and an IC50 (HCT-15; five-dose) of 4.79 µM. It also gave an IC (TGI) (HCT-15; five-dose) of 20 µM, a CC50 (HCT-15; five-dose) of at least 100 µM and a GI50 (HL-60(TB); five-dose) of 2.63 µM. For the same compound, the IC50 (HL-60(TB); five-dose) was 5.01 µM, the IC (TGI) (HL-60(TB); five-dose) was 8.91 µM and the CC50 (HL-60(TB); five-dose) was at least 100 µM. For the same compound, the GI50 (MCF7; five-dose) was 37.2 µM, the IC50 (MCF7; five-dose) was 52.5 µM and the IC (TGI) (MCF7; five-dose) was 100 µM. For the same compound, the CC50 (MCF7; five-dose) was at least 100 µM, the GI50 (OVCAR-8; five-dose) was 2.29 µM and the IC50 (OVCAR-8; five-dose) was 3.63 µM. It also gave an IC (TGI) (OVCAR-8; five-dose) of 5.37 µM, a CC50 (OVCAR-8; five-dose) of 30.9 µM and a GI50 (SF-268; five-dose) of 2.51 µM. For the same compound, the IC50 (SF-268; five-dose) was 4.47 µM, the IC (TGI) (SF-268; five-dose) was 6.92 µM and the CC50 (SF-268; five-dose) was 37.2 µM. It also gave a GI50 (SK-MEL-5; five-dose) of 4.79 µM, an IC50 (SK-MEL-5; five-dose) of 8.32 µM and an IC (TGI) (SK-MEL-5; five-dose) of 16.6 µM. For the same compound, the CC50 (SK-MEL-5; five-dose) was 42.7 µM, the GI50 (A498; five-dose) was 100 µM and the IC50 (A498; five-dose) was 100 µM. For the same compound, the IC (TGI) (A498; five-dose) was 100 µM, the CC50 (A498; five-dose) was at least 100 µM and the GI50 (RPMI-8226; five-dose) was 33.9 µM. For the same compound, the IC50 (RPMI-8226; five-dose) was 58.9 µM, the IC (TGI) (RPMI-8226; five-dose) was 100 µM and the CC50 (RPMI-8226; five-dose) was at least 100 µM. It also gave a GI50 (OVCAR-4; five-dose) of 17.8 µM, an IC50 (OVCAR-4; five-dose) of 37.2 µM and an IC (TGI) (OVCAR-4; five-dose) of 46.8 µM. The CC50 (OVCAR-4; five-dose) was at least 100 µM, the GI50 (OVCAR-3; five-dose) was 8.13 µM and the IC50 (OVCAR-3; five-dose) was 19.1 µM. It also gave an IC (TGI) (OVCAR-3; five-dose) of 28.8 µM, a CC50 (OVCAR-3; five-dose) of 97.7 µM and a GI50 (HT29; HT-29, five-dose) of 15.5 µM. It also gave an IC50 (HT29; HT-29, five-dose) of 21.9 µM, an IC (TGI) (HT29; HT-29, five-dose) of 100 µM and a CC50 (HT29; HT-29, five-dose, read-out: LC50 (the source's name) (converted)) of at least 100 µM. It also gave a GI50 (NCI-H226; five-dose) of 23.4 µM, an IC50 (NCI-H226; five-dose) of 100 µM and an IC (TGI) (NCI-H226; five-dose) of 79.4 µM. For the same compound, the CC50 (NCI-H226; five-dose) was at least 100 µM, the GI50 (SK-OV-3; five-dose) was 22.4 µM and the IC50 (SK-OV-3; five-dose) was 67.6 µM. It also gave an IC (TGI) (SK-OV-3; five-dose) of 100 µM and a CC50 (SK-OV-3; five-dose) of at least 100 µM.

In the case of `COc1cc(Cn2c(C(F)(F)F)cc3c(Cl)ncnc32)ccn1` [NUCC-0226694], the GI50 (CCRF-CEM) is reported as 3.16 µM, the IC50 (CCRF-CEM) is reported as 5.37 µM and the IC (TGI) (CCRF-CEM) is reported as 18.6 µM. It also gave a CC50 (CCRF-CEM) of at least 100 µM, a GI50 (HCT-15) of 3.09 µM and an IC50 (HCT-15) of 3.8 µM. For the same compound, the IC (TGI) (HCT-15) was 10 µM, the CC50 (HCT-15) was 53.7 µM and the GI50 (HL-60(TB)) was 2.14 µM. For the same compound, the IC50 (HL-60(TB)) was 3.39 µM, the IC (TGI) (HL-60(TB)) was 7.24 µM and the CC50 (HL-60(TB)) was at least 100 µM. The GI50 (MCF7) was 5.13 µM, the IC50 (MCF7) was 7.24 µM and the IC (TGI) (MCF7) was 20 µM. It also gave a CC50 (MCF7) of 61.7 µM, a GI50 (OVCAR-8) of 11.5 µM and an IC50 (OVCAR-8) of 19.1 µM. For the same compound, the IC (TGI) (OVCAR-8) was 26.3 µM, the CC50 (OVCAR-8) was 61.7 µM and the GI50 (SF-268) was 2.45 µM. For the same compound, the IC50 (SF-268) was 4.57 µM, the IC (TGI) (SF-268) was 9.33 µM and the CC50 (SF-268) was 41.7 µM. The GI50 (SK-MEL-5) was 3.89 µM, the IC50 (SK-MEL-5) was 6.92 µM and the IC (TGI) (SK-MEL-5) was 14.1 µM. It also gave a CC50 (SK-MEL-5) of 38 µM, a GI50 (A498) of 15.8 µM and an IC50 (A498) of 33.1 µM. For the same compound, the IC (TGI) (A498) was 30.9 µM, the CC50 (A498) was 58.9 µM and the GI50 (RPMI-8226) was 15.5 µM. The IC50 (RPMI-8226) was 26.3 µM, the IC (TGI) (RPMI-8226) was 79.4 µM and the CC50 (RPMI-8226) was at least 100 µM. For the same compound, the GI50 (OVCAR-4) was 12 µM, the IC50 (OVCAR-4) was 22.9 µM and the IC (TGI) (OVCAR-4) was 26.9 µM. It also gave a CC50 (OVCAR-4) of 58.9 µM, a GI50 (OVCAR-3) of 2.34 µM and an IC50 (OVCAR-3) of 4.07 µM. For the same compound, the IC (TGI) (OVCAR-3) was 7.08 µM, the CC50 (OVCAR-3) was 30.9 µM and the GI50 (HT29; HT-29) was 14.1 µM. The IC50 (HT29; HT-29) was 21.9 µM, the IC (TGI) (HT29; HT-29) was 41.7 µM and the CC50 (HT29; HT-29, read-out: LC50 (the source's name) (converted)) was at least 100 µM. For the same compound, the GI50 (NCI-H226) was 15.5 µM, the IC50 (NCI-H226) was 33.1 µM and the IC (TGI) (NCI-H226) was 32.4 µM. The CC50 (NCI-H226) was 67.6 µM, the GI50 (SK-OV-3) was 17 µM and the IC50 (SK-OV-3) was 32.4 µM. It also gave an IC (TGI) (SK-OV-3) of 32.4 µM and a CC50 (SK-OV-3) of 61.7 µM.
